Reference: paper PMC6017322, “Triterpene Acids from Frankincense and Semi-Synthetic Derivatives That Inhibit 5-Lipoxygenase and Cathepsin G” (Molecules : A Journal of Synthetic Chemistry and Natural …, 2018)

Columns and labels:
cathepsin G = target: T1, cathepsin G (Homo sapiens, UniProt P08311); assay: Cathepsin G activity in a cell-free assay (Suc-AAPF-pNA substrate); assay type: biochemical; conditions: for inhibition of cathepsin G / inhibition at 10 µM: at 10 µM; for remaining activity at 10 µM / Cat. G Activity [% Control]: residual activity at 10 µM, mean ± SEM, 3–4 experiments; for remaining activity at 10 µM / IC50 / Cat. G Activity [% Control]: cell-free; for remaining activity at 10 µM: read-out: Cat. G Activity [% Control]; for IC50: purified cathepsin G from human neutrophils, read-out: Cat. G IC50 (converted)
T1 construct: purified cathepsin G (0.2 µg) from human neutrophils; purchased Calbiochem; host or cells: human neutrophils (natural source)
T1 sequence (P08311 21-244 limits assumed): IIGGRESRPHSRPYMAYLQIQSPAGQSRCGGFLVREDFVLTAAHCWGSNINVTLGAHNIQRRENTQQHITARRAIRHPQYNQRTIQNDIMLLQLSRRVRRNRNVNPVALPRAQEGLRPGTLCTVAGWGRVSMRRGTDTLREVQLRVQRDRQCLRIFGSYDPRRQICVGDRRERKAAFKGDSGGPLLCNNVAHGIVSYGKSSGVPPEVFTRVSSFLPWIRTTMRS
Method: Commercially available purified cathepsin G (0.2 µg) from human neutrophils (Calbiochem, La Jolla, CA, USA) was mixed with test compounds or DMSO (vehicle control) in 200 µL 0.1 M HEPES pH 7.4, 0.5 M NaCl, and 10% DMSO in a 96-well plate (Greiner Bio-One, Frickenhausen, Germany) and pre-incubated for 20 min at 25 °C. Then, N-Suc–Ala–Ala–Pro–Phe–pNA (Suc–AAPF–pNA) (1 mM) as substrate for cathespin G was added, and the absorbance was measured at 410 nm at 25 °C using a Victor^2 plate reader (PerkinElmer, Waltham, MA, USA).

5-LO [1] = target: T2, 5-LO (Homo sapiens, UniProt P09917); assay: 5-LO activity in a cell-free assay (isolated human recombinant 5-LO, 20 µM arachidonic acid); assay type: biochemical; set-up: made in house; host or cells: Escherichia coli BL21 (pT3-5-LO plasmid); conditions: for remaining activity at 10 µM / 5-LO Activity [% Control] cell-free: residual activity at 10 µM, isolated 5-LO, 20 µM arachidonic acid, mean ± SEM, 3–4 experiments; for remaining activity at 10 µM: read-out: 5-LO Activity [% Control] cell-free
T2 sequence (P09917 1-674): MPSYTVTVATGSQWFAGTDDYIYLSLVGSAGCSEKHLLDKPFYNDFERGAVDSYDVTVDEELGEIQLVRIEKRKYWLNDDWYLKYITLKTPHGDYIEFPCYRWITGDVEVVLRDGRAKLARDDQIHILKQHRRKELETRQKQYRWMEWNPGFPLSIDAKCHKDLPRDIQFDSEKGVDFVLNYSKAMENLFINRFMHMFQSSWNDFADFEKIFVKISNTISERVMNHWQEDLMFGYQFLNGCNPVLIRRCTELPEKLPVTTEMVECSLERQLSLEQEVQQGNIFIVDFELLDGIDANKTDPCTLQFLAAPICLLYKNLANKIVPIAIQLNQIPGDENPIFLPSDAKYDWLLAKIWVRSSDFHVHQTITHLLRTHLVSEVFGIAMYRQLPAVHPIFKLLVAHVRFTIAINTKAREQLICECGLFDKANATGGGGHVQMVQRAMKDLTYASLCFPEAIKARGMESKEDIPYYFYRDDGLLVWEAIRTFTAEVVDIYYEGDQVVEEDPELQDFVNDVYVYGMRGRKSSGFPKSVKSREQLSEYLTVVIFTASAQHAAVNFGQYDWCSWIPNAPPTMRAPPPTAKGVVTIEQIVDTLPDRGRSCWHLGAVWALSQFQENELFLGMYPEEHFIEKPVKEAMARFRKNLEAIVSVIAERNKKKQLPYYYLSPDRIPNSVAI
Method: Human recombinant 5-LO was expressed in Eschericha coli BL21 transformed with pT3-5-LO plasmid at 30 °C overnight, as described elsewhere. Cells were lysed in lysis buffer containing triethanolamine (50 mM, pH 8.0), EDTA (5 mM), phenylmethanesulfonyl fluoride (1 mM), soybean trypsin inhibitor (60 µg/mL), dithiothreitol (2 mM), and lysozyme (1 mg/mL), and homogenized by sonification (3 × 15 s). 5-LO was then purified from 40,000× g supernatant (20 min, 4 °C) using an ATP-agarose column (Sigma-Aldrich, Deisenhofen, Germany), diluted with PBS buffer containing 1 mM EDTA, and immediately used for 5-LO activity assays.
To determine 5-LO activity, aliquots of purified 5-LO (0.5 µg 5-LO in 1 mL PBS plus 1 mM EDTA) were pre-incubated with the test compounds or vehicle (0.1% dimethyl sulfoxide, DMSO) on ice for 15 min, pre-warmed for 30 s at 37 °C in a water bath, and then stimulated with 20 µM AA and CaCl2 2 mM for 10 min at 37 °C. The reaction was stopped with one volume of ice-cold methanol and 5-LO products (including all-trans-isomers of LTB4 and 5-hydroperoxyeicosatetraenoic acid (5-HpETE), as well as its corresponding alcohol 5-hydroxyeicosatetraenoic acid (5-HETE)) were analyzed by reversed phase (RP)-HPLC (Elite LaChrom, VWR, Radnor, PA, USA) as previously described. In brief, acidified PBS and 200 ng of internal PGB1 standard were added and solid phase extraction using C18 RP-columns (100 mg, UCT, Bristol, PA, USA) was performed. After elution with methanol, samples were analyzed by RP-HPLC using a C-18 Radial-PAK column (Waters, Eschborn, Germany).

5-LO [2] = target: T2, 5-LO; assay: 5-LO product formation in intact human neutrophils stimulated with A23187 (cell-based); set-up: 5-LO product formation in intact human neutrophils; endogenous in cells; host or cells: freshly isolated human peripheral blood neutrophils; conditions: for IC50: human neutrophils stimulated with A23187; for remaining activity at 10 µM: read-out: 5-LO Activity [% Control] cell-based
Method: Neutrophils were isolated from peripheral blood (University Hospital Tübingen, Germany), collected from fasted healthy adult donors that were informed about the aim of the study and gave written consent. Leukocyte concentrates were obtained by centrifugation (4000× g, 20 min, 20 °C) of heparinized blood preparation, and neutrophils were immediately isolated as described before. Briefly, leukocyte concentrates were subjected to dextran sedimentation and centrifuged on lymphocyte separation medium (LSM 1077, PAA, Coelbe, Germany). For isolation of pelleted neutrophils, remaining erythrocytes were removed by hypotonic lysis, washed twice with ice-cold phosphate-buffered saline (PBS) and finally resuspended in PBS buffer containing 0.1% glucose and CaCl2 (1 mM) (PGC buffer).
5-LO product formation in intact human neutrophils was performed using 5 × 10^6 freshly isolated cells that were resuspended in 1 mL PGC buffer. Cells were pre-incubated with the test compounds or vehicle (0.1% DMSO) at 37 °C for 15 min prior to stimulation with 2.5 µM Ca^2+-ionophore A23187 for 10 min (37 °C). 5-LO product formation was stopped by addition of one volume of ice-cold methanol, samples were subjected to solid phase extraction after addition of 200 ng PGB1 as internal standard, and 5-LO products (LTB4, its trans-isomers and 5-HETE) were analyzed by RP-HPLC as described above.

[3] = residual activity at 10 µM, human neutrophils, A23187, mean ± SEM, 3–4 experiments

CC(C)=CCC[C@H](C(=O)O)[C@@H]1CC[C@]2(C)C3=C(CC[C@@]12C)[C@@]1(C)CC[C@H](O)C(C)(C)[C@@H]1CC3 [compound 15]
inhibition of cathepsin G (cathepsin G): failed to markedly inhibit cathepsin G | remaining activity at 10 µM (cathepsin G): 80.1 ± 6.2% | inhibition at 10 µM (5-LO [1]): 36% | remaining activity at 10 µM (5-LO [1]): 64.1 ± 12.4% | IC50 (5-LO [2]): 3 µM | remaining activity at 10 µM (5-LO [2]; [3]): 5.2 ± 1%

CC(C)=CCC[C@H](C(=O)O)[C@@H]1CC[C@]2(C)C3=C(CC[C@@]12C)[C@@]1(C)CCC(=O)C(C)(C)[C@@H]1CC3 [compound 16]
inhibition at 10 µM (cathepsin G): 27 to 44% | remaining activity at 10 µM (cathepsin G): 53.1 ± 5.5% | remaining activity at 10 µM (5-LO [1]): 77.1 ± 8.7% | IC50 (5-LO [2]): 7.1 µM | remaining activity at 10 µM (5-LO [2]; [3]): 37.8 ± 2.4%

CC(=O)O[C@@H]1CC[C@]2(C)C3=C(CC[C@H]2C1(C)C)[C@@]1(C)CC[C@@H]([C@H](CCC=C(C)C)C(=O)O)[C@]1(C)CC3 [compound 17]
inhibition at 10 µM (cathepsin G): 27 to 44% | remaining activity at 10 µM (cathepsin G): 66.7 ± 4.5% | remaining activity at 10 µM (5-LO [1]): 75.6 ± 3% | remaining activity at 10 µM (5-LO [2]; [3]): 75.5 ± 2.1%

C[C@H]1[C@H](C)CC[C@]2(C)CC[C@]3(C)C(=C[C@@H](O)[C@@H]4[C@@]5(C)CC[C@@H](O)[C@](C)(C(=O)O)[C@@H]5CC[C@]43C)[C@H]12 [compound 18, 11α-Hydroxy-β-boswellic acid]
remaining activity at 10 µM (cathepsin G): 62.9 ± 6.6% | inhibition at 10 µM (5-LO [1]): < 25% | remaining activity at 10 µM (5-LO [1]): 72.8 ± 7.1% | IC50 (5-LO [2]): 2.8 µM | remaining activity at 10 µM (5-LO [2]; [3]): 18.3 ± 2.7%

C[C@H]1[C@H](C)CC[C@]2(C)CC[C@]3(C)C(=C[C@H](O)[C@@H]4[C@@]5(C)CC[C@@H](O)[C@](C)(C(=O)O)[C@@H]5CC[C@]43C)[C@H]12 [compound 19, 11β-hydroxy-β-boswellic acid]
remaining activity at 10 µM (cathepsin G): 82.7 ± 9% | inhibition at 10 µM (5-LO [1]): < 25% | remaining activity at 10 µM (5-LO [1]): 87.2 ± 1.8% | remaining activity at 10 µM (5-LO [2]; [3]): 58.2 ± 0.9%

C[C@H]1[C@H](C)CC[C@]2(C)CC[C@]3(C)C(=CC[C@@H]4[C@@]5(C)CC[C@@H](OC(=O)C(=O)O)[C@](C)(C(=O)O)[C@@H]5CC[C@]43C)[C@H]12 [compound 20, 3-O-Oxaloyl-β-boswellic acid]
IC50 (cathepsin G): 4.7 µM | remaining activity at 10 µM (cathepsin G): 38.1 ± 6.4% | 5-LO Activity [% Control] cell-free (5-LO [1]): n.i. | remaining activity at 10 µM (5-LO [2]; [3]): 77.3 ± 5.7%

C[C@H]1[C@H](C)CC[C@]2(C)CC[C@]3(C)C(=CC(=O)[C@@H]4[C@@]5(C)CC[C@@H](OC(=O)C(=O)O)[C@](C)(C(=O)O)[C@@H]5CC[C@]43C)[C@H]12 [compound 21, 3-O-Oxaloyl-11-keto-β-boswellic acid]
inhibition of cathepsin G (cathepsin G): not active | Cat. G Activity [% Control] (cathepsin G): n.i. | 5-LO Activity [% Control] cell-free (5-LO [1]): n.i. | remaining activity at 10 µM (5-LO [2]; [3]): 70.3 ± 6.9%

C[C@H]1[C@H](C)CC[C@]2(C)CC[C@]3(C)C(=CC[C@@H]4[C@@]5(C)CC[C@@H](OC(=O)CCC(=O)O)[C@](C)(C(=O)O)[C@@H]5CC[C@]43C)[C@H]12 [compound 22, 3-O-Succinoyl-β-boswellic acid]
remaining activity at 10 µM (cathepsin G): 59.4 ± 7.6% | remaining activity at 10 µM (5-LO [1]): 85.9 ± 11.1% | remaining activity at 10 µM (5-LO [2]; [3]): 60.3 ± 8%

C[C@H]1[C@H](C)CC[C@]2(C)CC[C@]3(C)C(=CC(=O)[C@@H]4[C@@]5(C)CC[C@@H](OC(=O)CCC(=O)O)[C@](C)(C(=O)O)[C@@H]5CC[C@]43C)[C@H]12 [compound 23, 3-O-Succinoyl-11-keto-β-boswellic acid]
inhibition of cathepsin G (cathepsin G): not active | Cat. G Activity [% Control] (cathepsin G): n.i. | remaining activity at 10 µM (5-LO [1]): 75 ± 4.8% | remaining activity at 10 µM (5-LO [2]; [3]): 80.8 ± 6.8%

C[C@H]1[C@H](C)CC[C@]2(C)CC[C@]3(C)C(=CC[C@@H]4[C@@]5(C)CC[C@@H](OC(=O)CCCC(=O)O)[C@](C)(C(=O)O)[C@@H]5CC[C@]43C)[C@H]12 [compound 24, 3-O-Glutaroyl-β-boswellic acid]
IC50 (cathepsin G): 3.6 µM | remaining activity at 10 µM (cathepsin G): 24.5 ± 1.7% | 5-LO Activity [% Control] cell-free (5-LO [1]): n.i. | remaining activity at 10 µM (5-LO [2]; [3]): 65.3 ± 8%

C[C@H]1[C@H](C)CC[C@]2(C)CC[C@]3(C)C(=CC(=O)[C@@H]4[C@@]5(C)CC[C@@H](OC(=O)CCCC(=O)O)[C@](C)(C(=O)O)[C@@H]5CC[C@]43C)[C@H]12 [compound 25, 3-O-Glutaroyl-11-keto-β-boswellic acid]
IC50 (cathepsin G): 8.6 µM | remaining activity at 10 µM (cathepsin G): 49.1 ± 11% | 5-LO Activity [% Control] cell-free (5-LO [1]): n.i. | 5-LO Activity [% Control] cell-based (5-LO [2]; [3]): n.i.

C[C@H]1[C@H](C)CC[C@]2(C)CC[C@]3(C)C(=CC[C@@H]4[C@@]5(C)CC[C@@H](OCC(=O)O)[C@](C)(C(=O)O)[C@@H]5CC[C@]43C)[C@H]12 [compound 26, 3-O-Carboxymethyl-β-boswellic acid]
IC50 (cathepsin G): 3.4 µM | remaining activity at 10 µM (cathepsin G): 28.8 ± 7.4% | remaining activity at 10 µM (5-LO [1]): 78.1 ± 7.4% | inhibition at 10 µM (5-LO [2]; at 10 µM, human neutrophils, read-out: inhibition of 5-LO activity in intact cells): 42% | remaining activity at 10 µM (5-LO [2]; [3]): 57.6 ± 5.3%

C[C@H]1[C@H](C)CC[C@]2(C)CC[C@]3(C)C(=CC(=O)[C@@H]4[C@@]5(C)CC[C@@H](OCC(=O)O)[C@](C)(C(=O)O)[C@@H]5CC[C@]43C)[C@H]12 [compound 27, 3-O-Carboxymethyl-11-keto-β-boswellic acid]
inhibition of cathepsin G (cathepsin G): not active | Cat. G Activity [% Control] (cathepsin G): n.i. | 5-LO Activity [% Control] cell-free (5-LO [1]): n.i. | remaining activity at 10 µM (5-LO [2]; [3]): 68.4 ± 2.1%
